We go through 13 molecules from US6608086B2, “Dihydropyridines and new uses thereof” (Synaptic Pharmaceutical Corporation, priority 1993, dated 2003).

One experiment concerns the target T1, α2B receptor (Homo sapiens, UniProt P18089).
T1 construct: host or cells: LM(tk-) cells, line L-NGC-α2B
T1 sequence (P18089 1-450): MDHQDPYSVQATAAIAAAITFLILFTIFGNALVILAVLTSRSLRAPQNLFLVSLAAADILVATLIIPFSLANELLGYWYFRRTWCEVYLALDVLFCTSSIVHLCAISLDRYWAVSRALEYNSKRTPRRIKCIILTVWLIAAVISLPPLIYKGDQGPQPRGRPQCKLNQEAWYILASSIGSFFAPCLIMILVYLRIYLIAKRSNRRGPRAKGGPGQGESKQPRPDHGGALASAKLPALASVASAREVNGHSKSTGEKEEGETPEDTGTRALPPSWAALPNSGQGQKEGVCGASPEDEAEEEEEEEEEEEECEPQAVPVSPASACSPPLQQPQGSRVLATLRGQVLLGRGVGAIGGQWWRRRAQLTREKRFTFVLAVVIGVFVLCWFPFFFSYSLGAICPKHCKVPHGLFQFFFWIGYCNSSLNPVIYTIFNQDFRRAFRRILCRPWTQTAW
In words: Competition binding, [3H]rauwolscine, human α2B receptor. Summed up:
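Using 25 mM glycylglycine buffer at pH 7.6 (room temperature), membranes from LM(tk−) cells carrying α2A, α2B or α2C were competed against 0.5 nM [3H]rauwolscine to equilibrium. Separation was by GF/B filtration; phentolamine (10 μM) set nonspecific binding.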

Experiment [1] has as its target T2, α1B Human Adrenergic Receptor (Homo sapiens, UniProt P35368).
T2 construct: The entire coding region of α1B (1563 bp); expressed in transfected cells
T2 sequence (P35368 1-520): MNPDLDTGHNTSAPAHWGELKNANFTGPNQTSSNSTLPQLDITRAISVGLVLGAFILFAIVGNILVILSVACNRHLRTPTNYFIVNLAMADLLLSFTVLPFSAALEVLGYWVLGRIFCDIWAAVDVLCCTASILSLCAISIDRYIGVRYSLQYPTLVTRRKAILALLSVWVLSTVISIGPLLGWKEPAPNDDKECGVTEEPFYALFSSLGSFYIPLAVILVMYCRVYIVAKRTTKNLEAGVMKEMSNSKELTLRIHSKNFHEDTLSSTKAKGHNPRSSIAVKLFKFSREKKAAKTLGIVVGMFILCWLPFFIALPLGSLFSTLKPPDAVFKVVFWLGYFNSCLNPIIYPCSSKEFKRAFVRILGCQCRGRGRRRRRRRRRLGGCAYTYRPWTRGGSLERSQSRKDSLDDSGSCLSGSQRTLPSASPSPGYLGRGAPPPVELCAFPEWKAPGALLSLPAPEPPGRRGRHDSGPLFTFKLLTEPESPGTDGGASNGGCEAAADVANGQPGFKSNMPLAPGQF
In words: Radioligand binding, [3H]prazosin, cloned human α1B adrenergic receptor. Summed up:
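[3H]prazosin (0.5 nM) binding was run for 20 min at 37° C in pH 7.5 Tris/MgCl2/ascorbate buffer on membranes of LM(tk−) cells stably expressing the cloned receptor. Filtration through GF/B ended the reaction; 10 μM phentolamine gave nonspecific binding.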

The target in experiment [2] is T3, α1C Human Adrenergic Receptor (Homo sapiens, UniProt P35348).
T3 construct: The entire coding region of α1C (1401 bp); expressed in transfected cells
T3 sequence (P35348 1-466): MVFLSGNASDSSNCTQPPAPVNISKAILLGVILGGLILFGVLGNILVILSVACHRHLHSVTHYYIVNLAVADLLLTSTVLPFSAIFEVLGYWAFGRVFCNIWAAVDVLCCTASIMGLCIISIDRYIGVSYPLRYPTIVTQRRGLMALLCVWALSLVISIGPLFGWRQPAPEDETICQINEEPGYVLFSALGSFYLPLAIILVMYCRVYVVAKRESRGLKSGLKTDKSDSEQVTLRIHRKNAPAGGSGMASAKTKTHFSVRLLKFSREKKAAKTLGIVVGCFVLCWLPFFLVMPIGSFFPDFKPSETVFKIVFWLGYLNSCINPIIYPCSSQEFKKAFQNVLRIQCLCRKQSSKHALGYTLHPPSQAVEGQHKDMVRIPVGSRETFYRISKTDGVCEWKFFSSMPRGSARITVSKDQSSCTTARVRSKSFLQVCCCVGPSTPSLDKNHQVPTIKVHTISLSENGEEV
Kind of experiment: Radioligand binding, [3H]prazosin, cloned human α1C adrenergic receptor. The essentials:
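Antagonist radioligand [3H]prazosin at 0.5 nM labels human α1C receptors in stably transfected LM(tk−) cell membranes over 20 min at 37° C. Phentolamine (10 μM) gives nonspecific binding.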

Where [3] appears, read: PKi alpha-2 2b, [3H]rauwolscine, human receptor, LM(tk-) cell lysates, mean.
[4] abbreviates: PKi alpha-1 1b, cloned human receptor, LM(tk-) cell membranes, mean.
Where [5] appears, read: PKi alpha-1 1c, cloned human receptor, LM(tk-) cell membranes, mean.
Where [6] appears, read: cloned human receptor, LM(tk-) cell membranes, mean, read-out: PKi alpha-1 1b (converted).
Setting [7] is: cloned human receptor, LM(tk-) cell membranes, mean, read-out: PKi alpha-1 1c (converted).
Setting [8] is: PKi alpha-2 2b, [3H]rauwolscine, human α2B receptor, LM(tk-) cells.
The mark [9] stands for this setting: PKi alpha-1 1b, cloned human α1B receptor, LM(tk-) cell membranes.
[10] abbreviates: PKi alpha-1 1c, cloned human α1C receptor, LM(tk-) cell membranes.
[11] abbreviates: cloned human α1B receptor, LM(tk−) cell membranes.
The mark [12] stands for this setting: cloned human α1C receptor, LM(tk−) cell membranes.
Setting [13] is: [3H]rauwolscine, human α2B receptor, LM(tk−) cells.
The mark [14] stands for this setting: cloned human receptor in LM(tk-) cell membranes, SEM and n in lines below.

Where two headings read alike, the source gives them in different places.

For the molecule `CCC1=C(C(=O)NC)C(c2ccc([N+](=O)[O-])cc2)C(C(=O)NCCCN2CCC(c3ccccc3)(c3ccccc3)CC2)=C(CCCCN)N1` (stereo not drawn) [Example 172, 2-(4-Aminobutyl)-6-ethyl-1,4-dihydro-5-(N-methyl)carboxamido-4-(4-nitrophenyl)-3-{N-[3-(4,4-diphenylpiperidin-1-yl)propyl]}carboxamidopyridine], the values for the Ki (at α2B receptor (setting [3]); in experiment [1] (setting [4]); in experiment [2] (setting [5])) were 3470 nM, 617 nM and 2.82 nM, respectively.

On to `CCNC(=O)C1=C(CC)NC(COCCN)=C(C(=O)NCCCN2CCC(C(=O)OC)(c3ccccc3)CC2)C1c1ccc([N+](=O)[O-])cc1` (stereo not drawn) [Example 233, 2-((2-Aminoethyl)oxy)methyl-6-ethyl-5-N-ethylcarboxamido-1,4-dihydro-3-(N-(3-(4-methoxycarbonyl-4-phenylpiperidin-1-yl)propyl))carboxamido-4-(4-nitro)phenylpyridine], for which the Ki at α2B receptor (PKi alpha-2 2b) was 8710 nM; in experiment [1] (setting [6]), 1620 nM; in experiment [2] (setting [7]), 2.14 nM.

For `CC(=O)C1=C(C)NC(COCCN)=C(C(=O)NCCCN2CCC(c3ccccc3)(c3ccccc3)CC2)C1c1ccc2c(c1)OCO2` (stereo not drawn) [Example 239, 5-Acetyl-2-((2-aminoethyl)oxy)methyl-1,4-dihydro-6-methyl-4-(3,4-methylenedioxy)phenyl-3-(N-(3-(4,4-dipheylpiperidin-1-yl)propyl))carboxamidopyridine], the Ki was 759 nM on α2B receptor (setting [8]), 257 nM in experiment [1] (setting [9]) and 2.04 nM in experiment [2] (setting [10]).

Regarding `CCC1=C(C(N)=O)C(c2ccc([N+](=O)[O-])cc2)C(C(=O)NCCCN2CCC(C(=O)OC)(c3ccccc3)CC2)=C(CCCCN=[N+]=[N-])N1` (stereo not drawn) [Example 165, 2-(4-Azidobutyl)-3-{N-[3-(4-methoxycarbonyl-4-phenylpiperidin-1-yl)propyl]}carboxamido-5-carboxamido-6-ethyl-1,4-dihydro-4-(4-nitrophenyl)pyridine], the Ki on α2B receptor ([3H]rauwolscine, human receptor, LM(tk-) cell lysates, mean, read-out: PKi alpha-2 2b (converted)) is 1950 nM; in experiment [1] (setting [6]), 575 nM; in experiment [2] (setting [7]), 0.501 nM.

Regarding `CCC1=C(C(=O)OCCO)C(c2ccc([N+](=O)[O-])cc2)C(C(=O)NCCCN2CCC(c3ccccc3)(c3ccccc3)CC2)=C(COC)N1` (stereo not drawn) [Example 246], the Ki was 309 nM on α2B receptor (setting [8]), 174 nM in experiment [1] (setting [9]) and 2.75 nM in experiment [2] (setting [10]).

`COC(=O)C1=C(C)NC(C)=C(C(=O)NCCCN2CCC(c3ccccc3)CC2)C1c1cccc([N+](=O)[O-])c1` (stereo not drawn) [Example 30, 1,4-Dihydro-3-methoxycarbonyl-2,6-dimethyl-4-(3-nitrophenyl)-5-(N-(3-(4-phenylpiperidin-1-yl)propyl)carboxamido)pyridine]: the Ki is 234 nM at α2B receptor ([3H]rauwolscine, LM(tk-) cell line L-NGC-α2B, SEM and n in lines below, read-out: pKi alpha-2 2b (converted)); 53.7 nM in experiment [1] (cloned human receptor in LM(tk-) cell membranes, SEM and n in lines below, read-out: pKi alpha-1 1b (converted)); 3.02 nM in experiment [2] (cloned human receptor in LM(tk-) cell membranes, SEM and n in lines below, read-out: pKi alpha-1 1c (converted)).

In the case of `CNC(=O)C1=C(C)NC(C)=C(C(=O)NCCCN2CCC(c3ccccc3)(c3ccccc3)CC2)C1c1ccc([N+](=O)[O-])cc1` (racemic) [(±)-119, 1,4-Dihydro-2,6-dimethyl-5-(N-Methyl) carboxamido-4-(4-nitrophenyl)-3-{N-[3-(4,4-diphenylpiperidin-1-yl)propyl]}carboxamidopyridine], on α2B receptor, the “pKi alpha-2 2b” value came to 6.04. For the same molecule, the “pKi alpha-1 1b” value in experiment [1] (setting [11]) is given as 6.38. Also, the “pKi alpha-1 1c” value in experiment [2] (setting [12]) is reported as 8.5.

In the case of `COc1ccccc1N1CCN(CCCNC(=O)C2=C(C)NC(C)=C(C(N)=O)C2c2ccc([N+](=O)[O-])cc2)CC1` (stereo not drawn) [Example 124], the Ki on α2B receptor ([3H]rauwolscine, human α2B receptor, LM(tk−) cells, read-out: pKi alpha-2 2b (converted)) was 200 nM; in experiment [1] (cloned human α1B receptor, LM(tk−) cell membranes, read-out: pKi alpha-1 1b (converted)), 89.1 nM; in experiment [2] (cloned human α1C receptor, LM(tk−) cell membranes, read-out: pKi alpha-1 1c (converted)), 1.95 nM.

`CCC1=C(C(N)=O)C(c2ccc([N+](=O)[O-])cc2)C(C(=O)NCCCN2CCC(c3ccccc3)(c3ccccc3)CC2)=C(CC)N1` (stereo not drawn) [Example 120, 5-Carboxamido-2,6-diethyl-1,4-dihydro-4-(4-nitrophenyl)-3-{N-[3-(4,4-diphenylpiperidin-1-yl)propyl]} carboxamidopyridine]: the “pKi alpha-2 2b” value at α2B receptor (setting [13]) is listed as 6.59. The “pKi alpha-1 1b” value in experiment [1] (setting [11]) worked out at 6.61. Moreover, in experiment [2] (setting [12]), the “pKi alpha-1 1c” value came to 8.97.

Take `COC(=O)C1=C(C)NC(C)=C(C(=O)NCCCCN2CCC(c3ccccc3)(c3ccccc3)CC2)C1c1ccc([N+](=O)[O-])cc1.Cl.O` (stereo not drawn) [Example 53, 1,4-Dihydro-3-methoxycarbonyl-2,6-dimethyl-4-(4-nitrophenyl)-5-{N-[4-(4,4-diphenylpiperidin-1-yl)butyl]}carboxamidopyridine hydrochloride hydrate]: the “pKi alpha-2 2b” value at α2B receptor ([3H]rauwolscine, LM(tk-) cell line L-NGC-α2B, SEM and n in lines below) turned out to be 6.34. Besides, the “pKi alpha-1 1b” value in experiment [1] (setting [14]) worked out at 6.87. Further, in experiment [2] (setting [14]), the “pKi alpha-1 1c” value is reported as 7.83.

For the molecule `CNC(=O)C1=C(C)NC(C)=C(C(=O)NCCCN2CCC(c3ccccc3)(c3ccccc3)CC2)C1c1ccc2c(c1)OCCO2` (stereo not drawn) [Example 163], the Ki at α2B receptor (setting [3]) was 1700 nM; in experiment [1] (setting [4]), 1020 nM; in experiment [2] (setting [5]), 18.6 nM.

`CCC1=C(C(N)=O)C(c2ccc([N+](=O)[O-])cc2)C(C(=O)NC2CCN(CCc3c[nH]c4ccccc34)CC2)=CN1CC` (stereo not drawn) [Example 123, 5-Carboxamido-1,6-diethyl-1,4-dihydro-3-(N-{1-[2-(3-indolyl)ethyl]piperidin-4-yl}) carboxamide-4-(4-nitrophenyl)pyridine]: the “pKi alpha-2 2b” value at α2B receptor (setting [13]) was determined as 6.87. The “pKi alpha-1 1b” value in experiment [1] (setting [11]) is on record as 8.01. In experiment [2] (setting [12]), the “pKi alpha-1 1c” value is 8.3.

With “5-Acetyl-1,4-dihydro-2,6-dimethyl-4-(4-nitrophenyl)-3-[3-(4,4-diphenylpiperidin-1-yl)propoxy]carbonylpyridine hydrochloride hemihydrate [Example 49]”, on α2B receptor, the “pKi alpha-2 2b” value came out at 6.42. Also, in experiment [1] (setting [14]), the “pKi alpha-1 1b” value was found to be 6.72. Besides, the “pKi alpha-1 1c” value in experiment [2] (setting [14]) was 8.56.
